Consider one molecule from article PMC7190660, “Standardised comparison of limonene-derived monoterpenes identifies structural determinants of anti-inflammatory activity” (Scientific Reports, 2020).

Several values for one entry are separate records, joined by “and”; a condition that tells them apart may be missing. Equal values may be shown once.

Data set [1] relates to human chondrocytes. In words: IL-1β-induced NOS2 protein, NO production and pro-IL-1β protein in primary human chondrocytes. Format: cell-based. Conditions: IL-1β 10 ng/mL 24 h.
Description: The cells were treated with 10 ng/mL IL-1β for 24 h (a, b, c and d), following pre-treatment for 1 h with 666 or 1331 µM of (S)-(+)-carvone (4). As a positive control, the cells were similarly treated with 5 μM Bay 11-7082 (b and c). Control cells (Ctrl) were treated with the vehicle (0.1% DMSO) in the absence of IL-1β. Each column represents the mean ± SEM of, at least, three independent experiments. The blots shown are representative of, at least, three independent experiments and are cropped for clarity and conciseness.
Briefly, cartilage shavings underwent sequential digestion with Pronase (Roche, Indianapolis, IN, USA) and collagenase A (Roche, Indianapolis, IN, USA). To avoid chondrocyte dedifferentiation, non-proliferating monolayer cultures were setup by plating 1× 10^6 chondrocytes/mL in HAM: F12 medium containing 3% antibiotics and 5% FBS and allowed to recover for 24 h at 37 °C in a humidified atmosphere with 5% CO2. Prior to any treatments, chondrocytes were serum-starved overnight and thereafter maintained in culture medium without FBS.
This vehicle was used as control. […] Recombinant human interleukin-1β (IL-1β; Peprotech, Rocky Hill, NJ, USA) was dissolved in PBS containing 0.1% Bovine Serum Albumin.
Total cell extracts were prepared and western blot was performed as described before[54]. […] Immune complexes were detected with Enhanced ChemiFluorescence reagent (GE Healthcare) in the imaging system Thyphoon FLA 9000 (GE Healthcare). The membranes were reprobed with a mouse monoclonal anti-β-Tubulin I antibody (Sigma-Aldrich Co.), diluted at 1:20000, as a loading control, for 1 h at room temperature. Image analysis was performed with TotalLab TL120 software (Nonlinear Dynamics Ltd).
The subject of data set [2] is LPS-induced NO production in Raw 264.7 macrophages. In words: Primary screening: LPS-induced NO production (nitrite, Griess reaction) in Raw 264.7 macrophages. It counts as cell-based, mouse. Here is the method:
(§1) Raw 264.7 cells were plated at a density of 3 × 10^5 cells/mL and left to stabilize for up to 24 h.
(§2) This vehicle was used as control. Lipopolysaccharides from Escherichia coli 026:B6 (LPS; Sigma-Aldrich Co.) were dissolved in phosphate buffered saline (PBS). Recombinant human interleukin-1β (IL-1β; Peprotech, Rocky Hill, NJ, USA) was dissolved in PBS containing 0.1% Bovine Serum Albumin.
(§3) NO production was measured as the amount of nitrite accumulated in the culture supernatants using the Griess reaction which is based in the reaction of nitrite with sulfanilamide under acidic conditions, yielding a diazonium ion that couples to N-(1-napthtyl)ethylenediamine dihydrochloride to form a water-soluble red-violet azo dye that absorbs at 550 nm[51]. Briefly, equal volumes of culture supernatants and reagents [equal volumes of 1% (w/v) sulphanilamide in 5% (v/v) phosphoric acid and 0.1% (w/v) N-(1-napthtyl)ethylenediamine dihydrochloride] were mixed and incubated for 10 min, at room temperature, in the dark. The concentration of nitrite accumulated in the culture supernatants was calculated by interpolation of the absorbance of each sample, read in Biotek Synergy HT plate reader (Biotek), in a standard curve of sodium nitrite.

Data set [3] deals with NOS2. In words: NO production and NOS2 protein levels pre-induced by LPS (compound added after LPS removal) in Raw 264.7. Format: cell-based, mouse. Conditions: LPS 1 μg/mL 8 h, LPS removed, then 666 µM compound for 18 h. Here is the method:
(§4) Each column represents the mean ± SEM of, at least, three independent experiments. The blots shown are representative of, at least, three independent experiments and are cropped for clarity and conciseness.
as §3
(§5) Total cell extracts were prepared and western blot was performed as described before. Briefly, total (25 µg for Raw 264.7 cell line and 20 µg for human chondrocytes) proteins were separated by SDS-PAGE under reducing conditions and electrotransferred onto PVDF membranes. […] Immune complexes were detected with Enhanced ChemiFluorescence reagent (GE Healthcare) in the imaging system Thyphoon FLA 9000 (GE Healthcare). The membranes were reprobed with a mouse monoclonal anti-β-Tubulin I antibody (Sigma-Aldrich Co.), diluted at 1:20000, as a loading control, for 1 h at room temperature. Image analysis was performed with TotalLab TL120 software (Nonlinear Dynamics Ltd).

Another data set concerns Raw 264.7 cells. In words: Cytotoxicity by resazurin reduction assay in Raw 264.7 cells. Conditions: viability not decreased by more than 30% relative to LPS alone (ISO 10993-5), LPS 1 µg/mL 18 h. It counts as cell-based, mouse. As for the experimental part:
Various concentrations of the test compounds, in the absence or presence of LPS, were first evaluated for cytotoxicity using the resazurin reduction assay[26]
as §1
Resazurin is a redox dye used as an indicator of cellular metabolic activity for various applications, namely cell viability, proliferation and toxicity. The assay is based on the intracellular reduction of the non-fluorescent resazurin to resorufin (a fluorescent and pink coloured compound) by mitochondrial or microsomal enzymes that use NADH or NADPH as electron sources. Since only metabolically active cells can reduce the dye, the increase in fluorescence or absorbance is directly proportional to the number of viable cells[26],[50].
(§6) To select non-cytotoxic concentrations of the test compounds, the resazurin solution was added to each well to a final concentration of 50 µM, 90 min before the end of the treatment period indicated in the figure legends. Then, absorbances at 570 nm and 620 nm (reference wavelength) were read in a Biotek Synergy HT plate reader (Biotek, Winooski, VT, USA).

Data set [4] relates to human chondrocytes. In words: Cell viability of IL-1β-treated primary human chondrocytes (resazurin). It counts as cell-based. Conditions: 666 or 1331 µM; IL-1β 10 ng/mL 24 h. Here is the method:
as §4, §2, §6
(In general: Alamar Blue is a resazurin reagent that responds to reducing activity.)

The test system of data set [5] is NOS2. In words: LPS-induced NOS2 mRNA (qRT-PCR) and protein (western blot) in Raw 264.7. Format: cell-based, mouse. As to conditions: 1 h pre-treatment, Bay 11-7082 5 μM.
Description: Macrophage cultures were treated with 1 µg/mL LPS, for 6 h (a) or 18 h (b), following pre-treatment for 1 h with 666 µM of each test compound (a) or with the concentrations indicated in (b). […] Control cells (Ctrl) were treated with the vehicle (0.1% DMSO) in the absence of LPS. Each column represents the mean ± SEM of four independent experiments. The blots shown are representative of, at least, three independent experiments and are cropped for clarity and conciseness.
Total RNA extraction and qRT-PCR were performed as described before[52]. Briefly, total RNA was extracted using the NZYol (NZYTECH, Lisbon, Portugal) and quantified in a NanoDrop ND-1000 spectrophotometer at 260 nm. RNA purity was assessed by analysis of 260/230 and 260/280 absorption ratios. The cDNA was reverse-transcribed using NZY First Strand cDNA Synthesis Kit (NZYTECH), beginning with 2 µg of total RNA. qRT-PCR was performed, in duplicate for each sample, using NZYSpeedy qPCR Green Master Mix (2×) (NZYTECH) on CFX96 Real-Time PCR Detection System (Bio-Rad, Hercules, CA, USA).
Gene expression changes were analysed using the built-in CFX Manager software which enables the analysis of the results by the Pfaffl method, a variation of the ΔΔCT method corrected for gene-specific efficiencies[53]. The results were normalized using Hprt1 as housekeeping gene.
Total cell extracts were prepared and western blot was performed as described before[54]. Briefly, total (25 µg for Raw 264.7 cell line and 20 µg for human chondrocytes) proteins were separated by SDS-PAGE under reducing conditions and electrotransferred onto PVDF membranes. […] Immune complexes were detected with Enhanced ChemiFluorescence reagent (GE Healthcare) in the imaging system Thyphoon FLA 9000 (GE Healthcare). The membranes were reprobed with a mouse monoclonal anti-β-Tubulin I antibody (Sigma-Aldrich Co.), diluted at 1:20000, as a loading control, for 1 h at room temperature. Image analysis was performed with TotalLab TL120 software (Nonlinear Dynamics Ltd).
Another data set concerns IL-1β. In words: LPS-induced IL-1β mRNA, pro-IL-1β protein and secreted IL-1β in Raw 264.7. Format: cell-based, mouse. Here is the method: Upon transcription, this mRNA is translated into a precursor protein (pro-IL-1β) that undergoes partial hydrolysis by a proteolytic complex, the inflammasome, being converted into the mature IL-1β protein which is then secreted.
Figure 3 (S)-(+)-carvone (4) and (R)-(−)-carvone (5) decrease LPS-induced IL-1β mRNA (a) and protein (b,c) levels in the Raw 264.7 cell line. Macrophage cultures were treated with 1 µg/mL LPS, for 6 h (a) or 18 h (b,c), following pre-treatment for 1 h with 666 µM of each test compound (a and c) or with the concentrations indicated in (b). Control cells (Ctrl) were treated with vehicle (0.1% DMSO) in the absence of LPS. Each column represents the mean ± SEM of, at least, three independent experiments. The blots shown are representative of, at least, three independent experiments and are cropped for clarity and conciseness. The corresponding full-length blots are presented in Fig. S3. *p < 0.05, **p < 0.01 and ****p < 0.0001 relative to LPS-treated cells. ^##p < 0.01, ^###p < 0.001 and ^####p < 0.0001 relative to the Ctrl. ^§p < 0.05 between the conditions indicated. MW: molecular weight marker.
as §2
Total RNA extraction and qRT-PCR were performed as described before. Briefly, total RNA was extracted using the NZYol (NZYTECH, Lisbon, Portugal) and quantified in a NanoDrop ND-1000 spectrophotometer at 260 nm. RNA purity was assessed by analysis of 260/230 and 260/280 absorption ratios. The cDNA was reverse-transcribed using NZY First Strand cDNA Synthesis Kit (NZYTECH), beginning with 2 µg of total RNA. qRT-PCR was performed, in duplicate for each sample, using NZYSpeedy qPCR Green Master Mix (2×) (NZYTECH) on CFX96 Real-Time PCR Detection System (Bio-Rad, Hercules, CA, USA).
Gene expression changes were analysed using the built-in CFX Manager software which enables the analysis of the results by the Pfaffl method, a variation of the ΔΔCT method corrected for gene-specific efficiencies. The results were normalized using Hprt1 as housekeeping gene.
as §5
The concentration of IL-1β in the culture supernatants was measured using the Mouse IL-1β ELISA kit (ThermoScientific, Rockford, USA), following the manufacturer’s instructions.

Where [6] appears, read: carvone 666 or 1331 µM, Bay 11-7082 5 µM.

In general, IC50 refers to the concentration at which inhibition is half-maximal. For `C=C(C)[C@H]1CC=C(C)C(=O)C1` [(S)-(+)-carvone (4), (S)-(+)-carvone], the pro-IL-1β protein levels result in the data set on human chondrocytes [1] (666 or 1331 µM) is “significantly decreased pro-IL-1β protein levels in a concentration-dependent manner”. In addition, in the data set on human chondrocytes [1] (setting [6]), the “IL-1β-induced NO production” value is given as “significantly decreased” and the “IL-1β-induced NOS2 protein levels” value is recorded as “significantly decreased”. Also, the IC50 in data set [2] (Mus musculus, RAW264.7, Raw 264.7 cell line) is 110 µM and 16.5 µg/mL. In addition, the “Decrease (inhibition) of LPS-induced NO production” value in data set [2] (at the highest concentration tested, Raw 264.7) is “greater than 30%”. The “% inhibition of LPS-induced NO production” value in data set [2] (at the highest non-cytotoxic concentration tested, Raw 264.7, nitrite in supernatants) is 68.73 ± 1.55 % ± SEM. In the data set on NOS2 [3], the “Decrease of NO production” value is recorded as “approximately 30%” and the “Reduction of NOS2 protein levels” value is on record as “approximately 60%”. Further, the “Highest non-cytotoxic concentration tested” value in the data set with Raw 264.7 cells was 666 µM and 100 µg/mL. In the data set on human chondrocytes [4], the “Cell viability relative to cells treated with IL-1β alone” value is listed as “not to affect cell viability”. Also, in the data set on NOS2 [5] (LPS 1 µg/mL 6 h, test compounds 666 µM), the “LPS-induced NOS2 mRNA levels” value was “significantly reduced”. Also, the “LPS-induced NOS2 protein levels” value with NOS2 [5] (LPS 1 µg/mL 18 h) is “significantly reduced”. Moreover, in the data set on IL-1β (LPS 1 µg/mL 6 h, 1 h pre-treatment with 666 µM), the “LPS-induced IL-1β mRNA levels” value is given as “significantly reduced”. Also, in the data set with IL-1β (LPS 1 µg/mL 18 h, 666 µM, ELISA, relative to LPS alone), the “mature IL-1β secreted into the cell culture medium” value is given as “significantly decreased”. For the same molecule, the pro-IL-1β protein levels entry in the data set on IL-1β (LPS 1 µg/mL 18 h, relative to LPS alone) is listed as “significantly decreased”.
